Experimental data published in US9828630B2, “Methods of enhancing genetic diagnosis” (BioLamina AB, priority 2011, dated 2017).
“Also recorded” adds a separate entry of the source.

What was measured:
hES cells = assay: Clonal survival of individualized hES cells at 250 cells per cm^2; format: cell-based, human; conditions: laminin-521/E-Cadherin matrix
Experimental: hES cells were plated in mTeSR1 medium on different coatings at a density of 250 cells per cm^2 and monitored after 5 days in culture using an alkaline phosphatase staining kit.
Next, combinations of laminin-521 and E-Cadherin were tested to determine whether the combinations could sustain clonal survival of the cells. Fixed amounts of laminin-521 were used for the cell culture dish coating in combination with titrated E-Cadherin.
Additional tests were performed to test the effects of various modifications to the mTeSR1 medium. A mixture of E-Cadherin to laminin-521 in a ratio of about 1:10 w/w was used to coat the plates. […] Time-lapse photography of the cells confirmed that laminin-521/E-Cadherin coatings facilitated cell survival through proliferation of the single cells, not through the aggregation of different cells.

human ES cells [1] = assay: Cell survival assay, 24 hours (1 day) after plating from single cell suspension; format: cell-based; conditions: for survival / attachment of dissociated hES cells 24 hours (one day) after plating: single cell suspension, O3 medium, no ROCK inhibitor
Experimental: (§1) The assay was performed as described (Extracellular Matrix Protocols, 2000). Briefly, 96-well plates were coated by extracellular matrix proteins as described above and blocked by O3 medium containing bovine serum albumin. The ES cells were plated at a cell density of 600 cell/mm^2 upon extracellular matrix-coated plates and were left to adhere for either 1 hour or 1 day at the cell incubator. Non-adherent cells were washed away, and adherent cells were fixed for 20 min by 5% glutaraldehyde, stained by 0.1% Crystal Violet.
(§2) The survival assay was performed as described for the cell adhesion assay above, except that the cells were left in the cell incubator for 24 hours. For inhibition of survival assay, the cells were kept in a medium with function blocking antibodies at the concentrations recommended by the manufacturer or pathway inhibitors at concentrations indicated in the text for 30 minutes, and then plated on the coated dishes. All the experiments were performed in quadruplicate.
Pluripotent hES cells express α1, α5, β1, β2 and γ1 laminin chains. To compare the adhesion and clonal survival of hES cells plated from single cell suspension to different coating substrata, hES cells growing as monolayers on LN-511 or as clusters on a feeder layer were trypsinized into single cell suspension in O3 medium and plated on cell culture dishes coated with Matrigel, LN-111, LN-511, LN-521 or a mixture of LN-511 and LN-521, in the absence or presence of a ROCK inhibitor (Y-27632) and analyzed after 24 hours.

human ES cells [2] = assay: Cell adhesion assay, 1 hour after plating on coated plates; format: cell-based
Experimental: as §1
Briefly, 96-well plates were coated by extracellular matrix proteins as described above and blocked by O3 medium containing bovine serum albumin. The ES cells were plated at cell density of 50,000 cells/cm^2 onto extracellular matrix-coated plates and left to adhere for 1 hour in a cell incubator. After that the plates were washed 3 times with the medium to remove the non-adherent cells, and then the adherent cells were fixed for 20 minutes by 5% glutaraldehyde, stained by 0.1% Crystal Violet. (Kebo Lab, Spanga, Sweden, http://www.kebolab.se). After one hour and 3 washes with water, Crystal Violet was extracted with 10% acetic acid and quantified by measuring optical density at 570 nm. All the experiments were performed in quadruplicate.

human ES and iPS cells = conditions: human ES cells grown on laminin-511; cited from earlier work
mouse ES cells = conditions: without LIF or feeder cells; cited from earlier work
human ES cells on LN-521 = assay: Inhibition of survival assay on LN-521 (function blocking antibodies, pathway inhibitors); format: cell-based; conditions: medium contained bFGF, FIG. 16
Experimental: as §2

Akt and MEK1 = assay: Western blot of inhibitor treated and control cells one hour after plating on LN-521; format: cell-based, human; conditions: one hour after plating on LN-521, FIG. 18 and 19
Experimental: HS 181 cells were trypsinized into single cell suspension as described above. For inhibition experiments, the cells were kept in O3 medium with blocking antibodies or pathway inhibitors for 30 minutes and then […] cells were plated on 35 mm dishes precoated with the appropriate matrix coating. For other experiments, same number of cells was plated directly after trypsinization. In all cases the cells were allowed to spread for 1 hour at 37° C., 5% CO2. After two washings in ice-cold PBS, the plates with cells were snap frozen in liquid nitrogen and stored at -80° C. To prepare samples for western blots and ELISA, the plates were slowly thawed and kept on ice with 100-150 μl of lysis buffer (50 mM Tris-HCl, pH7.5, 150 mM NaCl, 0.5% deoxycholate, 0.5% SDS, 1% Triton X-100, 1% Igepal, CompleteTM (Roche) and Phospho-StopTM (Roche)) on top. Then, the cells were scraped, pipetted and sheared through a 27 G 3⁄4'' needle. After that, the cell pellets were clarified by centrifugation at 16,100 rcf for 15 minutes at 4° C. For western blots, 4-12% gradient gels were used for SDS electrophoresis and the proteins were transferred to PVDF membranes. The membrane was hybridized with the antibody of interest according to the manufacturer's instructions. […] For the densitometry analysis the films were scanned at 2,400 dpi and analyzed by the […]5500 program (1 D-Multi Line densitometry mode). […]

For albumin, the “effect of 2× increase in albumin concentration in mTeSR1 on clonal survival” value (hES cells) was “significantly improved clonal survival”.

For “human recombinant LN-111: human recombinant laminin of α1, β1 and γ1 chains from triple transfected HEK293 cells”, the “survival / attachment of dissociated hES cells 24 hours (one day) after plating” value (“survival / attachment” for short) (human ES cells [1]) was “failed to survive”.

With “LN-511: human recombinant laminin-511 coating” the “adhesion of human ES cells after 1 hour” value (human ES cells [2]; O3 medium without any additives, without Y-27632, FIG. 6) was “roughly the same”, the “spreading of the cells after one hour compared with Matrigel or LN-111” value (human ES cells [2]; dissociated hES cells, not shown) was “clearly better” and the “survival / attachment” value (human ES cells [1]) was “did so as single cells; also recorded: very few”. For the same molecule, the “survival / attachment” value (human ES cells [1]; listed as human r-laminin-511) was “at a less extent”, the “survival / attachment” value (human ES cells [1]; listed as laminin-511) was “in most cases” and the “time hES cells maintain pluripotency and can generate teratomas in SCID mice” value (human ES and iPS cells) was “over 3 months”. For the same molecule, the “time of self-renewal of mouse ES cells” value (mouse ES cells) was “over 5 months”.

In the case of `COc1cccc(-c2cc(=O)c3ccccc3o2)c1N` [PD 98059], the “survival of hES cells 24 hours after plating on LN-521 with pathway inhibitor” value (human ES cells on LN-521) is reported as “did not affect the survival that severely” and the “efficacy of inhibitor treatment by western blot” value (Akt and MEK1) is reported as “confirmed”.

With “LN-111: mouse laminin-111 (Invitrogen), indicated as LN-111 if not otherwise stated” the “survival / attachment” value (human ES cells [1]) was “did not survive; also recorded: almost no cells had survived” and the “survival / attachment” value (human ES cells [1]; listed as mouse laminin-111) was “almost no cells remained attached”.

In the case of `C[C@@H](N)[C@H]1CC[C@H](C(=O)Nc2ccncc2)CC1` [Y-27632], the “attachment / survival of hES cells 24 hours after plating in presence of ROCK inhibitor” value (human ES cells [1]; O3 medium with Y-27632, Matrigel, LN-111, LN-511, LN-521 and mixture coatings) is reported as “remained attached on all 5 coatings; also recorded: survived on all surfaces” and the “cell shape 24 hours after plating on LN-521” value (human ES cells [1]; absence or presence of ROCK inhibitor) is reported as “spindle or crescent like shape”.

In the case of “LN-121: human recombinant laminin of α1, β2 and γ1 chains from triple transfected HEK293 cells”, the “survival / attachment” value (human ES cells [1]) is reported as “failed to survive”.
